Consider four compounds from ChEMBL document CHEMBL1208752, “Selective delivery of 2-hydroxy APA to Trypanosoma brucei using the melamine motif” (Bioorg Med Chem Lett, 2010).

In assay [1] the test system is Trypanosoma brucei brucei. Kind of assay: Antitrypanosomal activity against tbAT1 deficient Trypanosoma brucei brucei at 100 uM after 2 days by alamar blue assay. The assay is classed as functional, organism-based. A general note: Resazurin is reduced to fluorescent resorufin, in cell work by metabolically active cells.
The subject of assay [2] is Trypanosoma brucei brucei. As to the kind of experiment: Antitrypanosomal activity against wild type Trypanosoma brucei brucei expressing P2 transporter at 100 uM after 2 days by alamar blue assay. Type of assay: functional, organism-based.

For the compound `CC(Nc1nc(N)nc(N)n1)C(=O)OC(CN)CON.Cl.Cl` (centres undefined), the EC50 result in assay [1] is reported as “Not Active”.
For the compound `Cl.Cl.NCC(O)CON` (centres undefined), the EC50 result in assay [2] is “Not Active”.
With `Cl.Cl.NCC(CON)OC(=O)CCNc1nc(N)nc(N)n1` (centres undefined), the EC50 result in assay [1] is “Not Active”.
As for `Cl.Cl.NCC(CON)OC(=O)CNc1nc(N)nc(N)n1` (centres undefined), the EC50 entry in assay [1] is “Not Active”.
